From patent publication US20230012570A1, “BICYCLIC COMPOUND USED AS SELECTIVE ANDROGEN RECEPTOR MODULATOR” (MEDSHINE DISCOVERY INC., priority 2019, published 2023)
pEC50: −log10 of the molar value. Like-named read-outs stand apart in the source and are kept apart here.

Tests used:
[1] = biological target: T1, androgen receptor (AR) (Homo sapiens, UniProt P10275); assay: Agonistic effect of test compounds on androgen receptor (AR), LiveBLAzer FRET reporter cell assay; format: cell-based
T1 sequence (P10275 1-920): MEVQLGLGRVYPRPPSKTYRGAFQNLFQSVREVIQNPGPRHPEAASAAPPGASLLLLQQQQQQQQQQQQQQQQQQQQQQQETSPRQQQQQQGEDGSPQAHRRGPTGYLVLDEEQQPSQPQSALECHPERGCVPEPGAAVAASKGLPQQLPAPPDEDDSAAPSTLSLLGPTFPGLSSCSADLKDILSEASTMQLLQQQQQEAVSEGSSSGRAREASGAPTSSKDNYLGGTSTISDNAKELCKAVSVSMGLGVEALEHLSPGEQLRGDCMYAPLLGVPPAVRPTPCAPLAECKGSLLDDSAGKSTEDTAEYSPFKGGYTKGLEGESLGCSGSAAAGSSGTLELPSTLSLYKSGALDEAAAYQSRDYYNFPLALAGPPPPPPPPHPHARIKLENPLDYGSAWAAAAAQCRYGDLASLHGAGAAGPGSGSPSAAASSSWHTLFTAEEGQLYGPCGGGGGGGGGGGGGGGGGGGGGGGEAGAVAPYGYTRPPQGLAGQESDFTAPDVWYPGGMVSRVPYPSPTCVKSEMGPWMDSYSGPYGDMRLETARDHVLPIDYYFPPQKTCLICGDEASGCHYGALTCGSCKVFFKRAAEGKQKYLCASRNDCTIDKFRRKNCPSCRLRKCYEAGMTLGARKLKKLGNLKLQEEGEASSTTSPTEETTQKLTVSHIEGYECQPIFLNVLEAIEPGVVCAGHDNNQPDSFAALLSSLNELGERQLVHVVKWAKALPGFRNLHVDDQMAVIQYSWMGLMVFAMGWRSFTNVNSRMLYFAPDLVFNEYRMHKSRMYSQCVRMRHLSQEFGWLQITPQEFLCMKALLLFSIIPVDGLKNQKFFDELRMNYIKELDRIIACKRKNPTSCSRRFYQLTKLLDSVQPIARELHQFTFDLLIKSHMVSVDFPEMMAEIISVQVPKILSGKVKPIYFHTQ
Experimental: Experimental Embodiment 1: Agonistic Effect of Test Compounds on Androgen Receptor (AR)
1. Preparation of Compounds, Placing in Plates:
1.1 Preparation of compounds: the test compounds were diluted to the working concentration, and each compound was diluted by 4 times with Echo for 10 concentration gradients, and the compounds were added to a 384-well cell plate according to the microplate layout diagram, with 200 nL per well;
1.2 AR cell assay medium: 87% Opti-MEM (reduced serum medium), 10% Dialyzed FBS (dialyzed fetal bovine serum), 1% NEAA (non-essential amino acids), 1% sodium pyruvate and 1% penicillin-streptomycin;
1.3 culture medium, trypsin and Dulbecco's phosphate buffer were preheated in a 37° C. water bath;
1.4 the original medium in the cell culture flask was removed, and the cells were washed once with 6 mL of Dulbecco's phosphate buffer;
1.5 3.5 mL of trypsin was added to the cell culture flask, and the flask was gently shaken to make the trypsin fully contact with the cells, the trypsin was removed; after aspirating the trypsin, the culture flask was placed in a 37° C. incubator containing 5% CO2 for about 1 minute;
1.6 the cells were resuspended with 10 mL of cell detection medium, and about 0.8 mL of cell suspension was taken out for counting (ViCell XR)
1.7 the cell suspension was diluted with culture medium to 2.5×10^5 cells per mL;
1.8 40 !IL of cell suspension was added to each well of the cell plate, and 40 μL of cell culture medium was added to the other wells, and the cells were incubated in a 37° C. incubator containing 5% CO2 for 16 hours.
2. Reading the Board and Analyzing Data:
2.1 Preparation of solution A: 182 μL of DMSO was added to 200 μg of LiveBLAzer™-FRET B/G/g substrate (CCF4-AM). The solution A was packaged and stored in a refrigerator at −20° C.;
2.2 preparation of 6×substrate buffer: 15 μL of solution A was added to 150 μL of solution B, and the mixture was vortexed evenly, then 2335 μL of solution C was added to the above solution and vortexed evenly;
2.3 the cell culture plate was taken out, and 8μL of 6×substrate buffer was added to each well, shaken for 1 minute, and centrifuged at 1000 rpm for 10 seconds; after sealing the membrane, the cells were incubated at 23° C. for 2 hours, and the plate was read with Envision, and the curve EC50 value was fitted by Prism software.

[2] = Pharmacokinetic test in male SD rats, intravenous and intragastric administration, plasma LC-MS/MS; format: in vivo; settings: rat; for Vd: read-out: Apparent volume of distribution Vdss; for clearance: read-out: Clearance rate Cl; for AUC(0-inf): read-out: Curve area (0-inf) AUC0-inf; for AUC(0-t): read-out: Curve area (0-t) AUC0-last; for half-life: read-out: Half-life T1/2 (converted); for bioavailability: oral, intragastric vs intravenous administration, read-out: Bioavailability F; for Cmax: read-out: Blood drug concentration Cmax; for Tmax: read-out: Peak time Tmax
Description: Experimental Embodiment 2: Pharmacokinetic Test of the Compounds of the Present Disclosure
Male SD rats were used as test animals, and LC-MS/MS method was used to determine the drug concentrations in plasma of rats at different time after intravenous and intragastric administration of compound 1A, compound 3A and compound 8A. To study the pharmacokinetic behavior of the compounds in rats and to evaluate their pharmacokinetic characteristics.
2.1 Test Drugs: Compound 1A, Compound 3A and Compound 8A
2.2 Test animals: 12 healthy adult male SD rats, divided into 6 groups with 2 rats in each group. The animal was purchased from Shanghai Sippr-BK laboratory animal Co. Ltd., and the animal production license number was SOCK (Shanghai) 2013-0016.
An appropriate amount of sample was weighed, and appropriate amounts of DMSO, polyethylene glycol-15 hydroxystearate and water were added in turn according to the volume ratio of 10:10:80, and the clarified state of 0.2 mg/mL was reached after stirring and sonication for intravenous administration.
An appropriate amount of sample was weighed and dissolved in 5% Tween 80+90% polyethylene glycol 400+5% polyvinylpyrrolidone K30 solution, and the clarified state of 0.5 mg/mL was reached after stirring and sonication for intragastric administration.
12 male SD rats were divided into 6 groups, and after fasting overnight, groups 1-3 were administered intravenously with a volume of 5 mL/kg; groups 4-6 were administered by gavage with a volume of 10 mL/kg.
After compound 1A, compound 3A and compound 8A were intravenously administered to SD rats, 40 μL of blood was collected at 0.0833, 0.25, 0.5, 1, 2, 4, 8 and 24 hours, respectively, and placed in a test tube containing 2 μL of EDTA-K2. After compound 1A and compound 3A were administered by gavage, 40 μL of blood was collected at 0.25, 0.5, 1, 2, 4, 8 and 24 hours, respectively, and placed in a test tube containing 2 μL of EDTA-K2. The tubes were centrifuged at 4000 rpm for 15 minutes to separate the plasma and stored at −60° C. Animals were allowed to eat 2 hours after administration.
The content of the test compounds in the plasma of rats after intravenous and intragastric administration was determined by LC-MS/MS method. The linear range of the method was 2.00-6000 nmol/L; plasma samples were analyzed after acetonitrile precipitation protein treatment.

[3] = intravenous administration, dose 1.1 (1A), 0.69 (3A), 0.716 (8A) mg/kg
[4] = po, intragastric administration, dose 4.92 (1A), 4.2 (3A), 4.59 (8A) mg/kg
[5] = AR cells, 16 hours incubation, 10 concentrations, read-out: EC50, agonist activity on androgen receptor

N#Cc1ccc(N2CC3CC3C2C(O)C(F)(F)F)cc1C(F)(F)F (single isomer, unassigned) [Compound 1A]
pEC50 [1]: 9.09
Vd [2, 3]: 1.43 L/kg
clearance [2, 3]: 20.6 mL/min/kg
AUC(0-inf) [2, 3]: 2.5 µM·h
AUC(0-t) [2, 3]: 2.47 µM·h
half-life [2, 3]: 1.37 h
bioavailability [2]: 11%
Cmax [2, 4]: 223 nM
AUC(0-t) [2, 4]: 1.24 µM·h
Tmax [2, 4]: 4 h

N#Cc1c(F)cc(N2CC3CC3C2C(O)C(F)(F)F)cc1Cl (single isomer, unassigned) [Compound 5A]
pEC50 [1]: 9.43

N#Cc1c(F)cc(N2CC3CC3C2C(O)C(F)(F)F)cc1C(F)(F)F (single isomer, unassigned) [Compound 7A]
pEC50 [1]: 9.28

N#Cc1ncc(N2CC3CC3C2C(O)C(F)(F)F)cc1C(F)(F)F (single isomer, unassigned) [Compound 8A]
pEC50 [1, 5]: 8.49
Vd [2, 3]: 2.22 L/kg
clearance [2, 3]: 6.99 mL/min/kg
AUC(0-inf) [2, 3]: 4.87 µM·h
AUC(0-t) [2, 3]: 4.78 µM·h
half-life [2, 3]: 4.18 h
bioavailability [2]: 41%
Cmax [2, 4]: 1660 nM
AUC(0-inf) [2, 4]: 12.9 µM·h
AUC(0-t) [2, 4]: 12.7 µM·h
half-life [2, 4]: 3.69 h
Tmax [2, 4]: 4 h

N#Cc1ncc(N2CC3CC3C2C(O)C(F)(F)F)cc1OC(F)F (single isomer, unassigned) [Compound 9A]
pEC50 [1, 5]: 7.32

N#Cc1ncc(N2CC3CC3C2C(O)C(F)(F)F)cc1Cl (single isomer, unassigned) [Compound 10A]
pEC50 [1, 5]: 7.25

COc1cc(N2CC3CC3C2C(O)C(F)(F)F)cnc1C#N (single isomer, unassigned) [Compound 11A]
pEC50 [1, 5]: 6.87

N#Cc1ccc(N2C[C@@H]3COC[C@@H]3[C@H]2C(O)C(F)(F)F)cc1C(F)(F)F (single isomer, unassigned) [Compound 14A]
pEC50 [1]: 9.41

N#Cc1ccc(N2CC3CC3C2C(O)C(F)(F)F)cc1C(F)F (stereo not shown) [Mixture of compounds 2A and 2B]
pEC50 [1]: 8.06

N#Cc1cc(N2CC3CC3C2C(O)C(F)(F)F)cc(F)c1C#N (stereo not shown) [Mixture of compounds 6A and 6B]
pEC50 [1, 5]: 8.37

N#Cc1ncc(N2CC3C(C2C(O)C(F)(F)F)C3(F)F)cc1C(F)(F)F (stereo not shown) [Mixture of compounds 12A and 12B]
pEC50 [1, 5]: 8.20
